This is an account of results in PubChem BioAssay AID256 (DTP/NCI, 2004).

Each structure is given as a SMILES string. Values joined by “and” are separate entries in the source; they are usually repeats but may differ in a detail not shown here. Identical values can stand only once. Toxic doses and inconclusive results are not listed.

This test concerns CD2F1 mice, L1210 leukemia ip, survival T/C. Put plainly: NCI In Vivo Anticancer Drug Screen. Data for tumor model L1210 Leukemia (intraperitoneal) in CD2F1 (CDF1) mice. The note with it: higher = longer survival. In a few lines: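 Compound-dosed mice with transplantable tumor versus matched vehicle controls; endpoint ratio T/C reported.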
The mark [1] stands for this setting: endpoint: mean survival time, dose: 100.0 mg/kg/injection, schedule: Q01DX001 (ip), vehicle: saline with Tween-80.
[2] abbreviates: endpoint: mean survival time, dose: 400.0 mg/kg/injection, schedule: Q01DX001 (ip), vehicle: saline with Tween-80.
The mark [3] stands for this setting: endpoint: mean survival time, dose: 100.0 mg/kg/injection, schedule: Q01DX009 (ip), vehicle: saline with Tween-80.
Setting [4] is: endpoint: mean survival time, dose: 200.0 mg/kg/injection, schedule: Q01DX009 (ip), vehicle: saline with Tween-80.
The mark [5] stands for this setting: endpoint: mean survival time, dose: 400.0 mg/kg/injection, schedule: Q01DX009 (ip), vehicle: saline with Tween-80.

For the molecule `CCOS(=O)(=O)CCCCS(=O)(=O)OCC`, the T/C is 104 % of control (endpoint: mean survival time, dose: 10.0 mg/kg/injection, schedule: Q01DX009 (ip), vehicle: Klucel (hydroxypropylcellulose) (HPC)); 98 % of control (endpoint: mean survival time, dose: 20.0 mg/kg/injection, schedule: Q01DX009 (ip), vehicle: Klucel (hydroxypropylcellulose) (HPC)); 107 % of control (endpoint: mean survival time, dose: 40.0 mg/kg/injection, schedule: Q01DX009 (ip), vehicle: Klucel (hydroxypropylcellulose) (HPC)).
Consider `C1SCc2c1c1c(c3c2CSC3)CSC1`, for which the T/C reads like this: under setting [1], 87 % of control; under setting [2], 87 % of control.
For the molecule `CC(=O)NNC(=O)c1ccccc1CO`, the T/C reads like this: (endpoint: mean survival time, dose: 12.5 mg/kg/injection, schedule: Q01DX009 (ip), vehicle: other) 89 % of control; (endpoint: mean survival time, dose: 25.0 mg/kg/injection, schedule: Q01DX009 (ip), vehicle: other) 90 % of control; (endpoint: mean survival time, dose: 50.0 mg/kg/injection, schedule: Q01DX009 (ip), vehicle: other) 97 % of control; (endpoint: mean survival time, dose: 100.0 mg/kg/injection, schedule: Q01DX009 (ip), vehicle: other) 94 % of control; (endpoint: mean survival time, dose: 200.0 mg/kg/injection, schedule: Q01DX009 (ip), vehicle: other) 101 % of control.
Regarding `O=S1(=O)CS(=O)(=O)OCCO1`, the T/C (endpoint: median survival time, dose: 6.25 mg/kg/injection, schedule: Q01DX009 (oral), vehicle: Klucel (hydroxypropylcellulose) (HPC)) is 112 % of control; the T/C (endpoint: median survival time, dose: 12.5 mg/kg/injection, schedule: Q01DX001 (oral), vehicle: Klucel (hydroxypropylcellulose) (HPC)) was 101 % of control; the T/C (endpoint: median survival time, dose: 22.0 mg/kg/injection, schedule: Q06HX002 (oral), vehicle: Klucel (hydroxypropylcellulose) (HPC)) is 113 % of control; the T/C (endpoint: median survival time, dose: 25.0 mg/kg/injection, schedule: Q01DX001 (oral), vehicle: Klucel (hydroxypropylcellulose) (HPC)) is 112 % of control; the T/C (endpoint: median survival time, dose: 25.0 mg/kg/injection, schedule: Q01DX009 (oral), vehicle: Klucel (hydroxypropylcellulose) (HPC)) was 213 % of control; the T/C (endpoint: median survival time, dose: 33.0 mg/kg/injection, schedule: Q01DX001 (oral), vehicle: Klucel (hydroxypropylcellulose) (HPC)) was 117 % of control. For the same molecule, the T/C was 103 % of control (endpoint: median survival time, dose: 33.0 mg/kg/injection, schedule: Q01DX005 (oral), vehicle: Klucel (hydroxypropylcellulose) (HPC)); 117 % of control (endpoint: median survival time, dose: 33.0 mg/kg/injection, schedule: Q06HX002 (oral), vehicle: Klucel (hydroxypropylcellulose) (HPC)); 123 % of control (endpoint: median survival time, dose: 49.5 mg/kg/injection, schedule: Q01DX001 (oral), vehicle: Klucel (hydroxypropylcellulose) (HPC)); 119 % of control (endpoint: median survival time, dose: 50.0 mg/kg/injection, schedule: Q01DX001 (oral), vehicle: Klucel (hydroxypropylcellulose) (HPC)); 178 % of control and 337 % of control (endpoint: median survival time, dose: 50.0 mg/kg/injection, schedule: Q01DX009 (oral), vehicle: Klucel (hydroxypropylcellulose) (HPC)); 185 % of control (endpoint: median survival time, dose: 74.2 mg/kg/injection, schedule: Q01DX005 (oral), vehicle: Klucel (hydroxypropylcellulose) (HPC)). The T/C was 124 % of control (endpoint: median survival time, dose: 100.0 mg/kg/injection, schedule: Q01DX001 (oral), vehicle: Klucel (hydroxypropylcellulose) (HPC)); 238 % of control (endpoint: median survival time, dose: 100.0 mg/kg/injection, schedule: Q01DX009 (oral), vehicle: Klucel (hydroxypropylcellulose) (HPC)); 212 % of control (endpoint: median survival time, dose: 111.2 mg/kg/injection, schedule: Q01DX005 (oral), vehicle: Klucel (hydroxypropylcellulose) (HPC)); 235 % of control (endpoint: median survival time, dose: 112.5 mg/kg/injection, schedule: Q01DX001 (oral), vehicle: Klucel (hydroxypropylcellulose) (HPC)); 160 % of control (endpoint: median survival time, dose: 166.8 mg/kg/injection, schedule: Q01DX001 (oral), vehicle: Klucel (hydroxypropylcellulose) (HPC)); 272 % of control (endpoint: median survival time, dose: 166.8 mg/kg/injection, schedule: Q01DX005 (oral), vehicle: Klucel (hydroxypropylcellulose) (HPC)). In addition, the T/C is, setting by setting: (endpoint: median survival time, dose: 200.0 mg/kg/injection, schedule: Q01DX001 (oral), vehicle: Klucel (hydroxypropylcellulose) (HPC)) 178 % of control; (endpoint: median survival time, dose: 250.0 mg/kg/injection, schedule: Q01DX001 (oral), vehicle: Klucel (hydroxypropylcellulose) (HPC)) 225 % of control.
For the molecule `Nc1ccc(N=Nc2ccccc2)c(N)n1`, the T/C is 98 % of control under setting [3], 98 % of control under setting [4] and 100 % of control under setting [5].
As to `c1ccc2sc(SSN3CC4CCC(CC4)C3)nc2c1`, the T/C by setting is: (endpoint: mean survival time, dose: 12.5 mg/kg/injection, schedule: Q01DX009 (ip), vehicle: saline with Tween-80) 97 % of control and 108 % of control; (endpoint: mean survival time, dose: 25.0 mg/kg/injection, schedule: Q01DX009 (ip), vehicle: saline with Tween-80) 93 % of control and 101 % of control; (endpoint: mean survival time, dose: 50.0 mg/kg/injection, schedule: Q01DX009 (ip), vehicle: saline with Tween-80) 102 % of control and 103 % of control; under setting [3], 101 % of control and 108 % of control; under setting [4], 95 % of control and 108 % of control; under setting [5], 103 % of control.
On to `COc1ccc(C2(C)N=NC(=C(c3ccccc3)c3ccccc3)O2)cc1` (stereo not drawn), for which the T/C was 97 % of control under setting [3]; 91 % of control (endpoint: mean survival time, dose: 100.0 mg/kg/injection, schedule: Q04DX003 (ip), vehicle: saline with Tween-80); 86 % of control under setting [4]; 91 % of control (endpoint: mean survival time, dose: 200.0 mg/kg/injection, schedule: Q04DX003 (ip), vehicle: saline with Tween-80); 86 % of control under setting [5]; 93 % of control (endpoint: mean survival time, dose: 400.0 mg/kg/injection, schedule: Q04DX003 (ip), vehicle: saline with Tween-80).
On to `O=C1OC2C3CC4C2OC(=O)C4C13` (stereo not drawn), for which the T/C was 102 % of control under setting [3], 98 % of control under setting [4] and 90 % of control under setting [5].
In the case of `O=S1(=O)CCC1`, the T/C runs as follows: (endpoint: mean survival time, dose: 75.0 mg/kg/injection, schedule: Q01DX001 (ip), vehicle: saline) 114 % of control; (endpoint: mean survival time, dose: 150.0 mg/kg/injection, schedule: Q01DX001 (ip), vehicle: saline) 97 % of control; (endpoint: mean survival time, dose: 300.0 mg/kg/injection, schedule: Q01DX001 (ip), vehicle: saline) 105 % of control.
On to `O=C(COc1ccc(Cl)c(Cl)c1)Nc1cccc(S(=O)(=O)F)c1`, for which the T/C under setting [1] is 95 % of control; the T/C (endpoint: mean survival time, dose: 200.0 mg/kg/injection, schedule: Q01DX001 (ip), vehicle: saline with Tween-80) is 95 % of control; the T/C under setting [2] is 91 % of control.
With `CC(=O)Nc1ccc2c(c1)C(N1CC3CCC(CC3)C1)c1ccccc1-2` (stereo not drawn), the T/C runs as follows: (endpoint: mean survival time, dose: 50.0 mg/kg/injection, schedule: Q04DX003 (ip), vehicle: saline) 105 % of control; (endpoint: mean survival time, dose: 100.0 mg/kg/injection, schedule: Q04DX003 (ip), vehicle: saline) 103 % of control; (endpoint: mean survival time, dose: 200.0 mg/kg/injection, schedule: Q04DX003 (ip), vehicle: saline) 103 % of control.
As for `O=C(O)C1CCCC[N-]1.[Cl][Pd][Cl]` (stereo not drawn), the T/C is 95 % of control (endpoint: mean survival time, dose: 12.5 mg/kg/injection, schedule: Q01DX001 (ip), vehicle: saline); 108 % of control (endpoint: mean survival time, dose: 25.0 mg/kg/injection, schedule: Q01DX001 (ip), vehicle: saline); 98 % of control (endpoint: mean survival time, dose: 50.0 mg/kg/injection, schedule: Q01DX001 (ip), vehicle: saline); 104 % of control (endpoint: mean survival time, dose: 100.0 mg/kg/injection, schedule: Q01DX001 (ip), vehicle: saline); 109 % of control (endpoint: mean survival time, dose: 200.0 mg/kg/injection, schedule: Q01DX001 (ip), vehicle: saline).
Consider `O=C1OC(c2ccc([N+](=O)[O-])cc2)=N/C1=C\c1ccc2c(c1)OCO2`, for which the T/C (endpoint: mean survival time, dose: 25.0 mg/kg/injection, schedule: Q04DX002 (ip), vehicle: saline with Tween-80) was 95 % of control; the T/C (endpoint: mean survival time, dose: 50.0 mg/kg/injection, schedule: Q04DX002 (ip), vehicle: saline with Tween-80) was 98 % of control; the T/C (endpoint: mean survival time, dose: 100.0 mg/kg/injection, schedule: Q04DX002 (ip), vehicle: saline with Tween-80) was 91 % of control.
Consider `Cc1c2ccncc2c(C)c2c1[nH]c1ccc(O)cc12`, for which the T/C (endpoint: mean survival time, dose: 16.75 mg/kg/injection, schedule: Q04DX003 (ip), vehicle: water) was 116 % of control; the T/C (endpoint: mean survival time, dose: 50.0 mg/kg/injection, schedule: Q04DX003 (ip), vehicle: other) was 166 % of control; the T/C (endpoint: mean survival time, dose: 75.0 mg/kg/injection, schedule: Q04DX003 (ip), vehicle: water) was 111 % of control; the T/C (endpoint: mean survival time, dose: 100.0 mg/kg/injection, schedule: Q04DX003 (ip), vehicle: other) was 102 % of control; the T/C (endpoint: mean survival time, dose: 100.0 mg/kg/injection, schedule: Q04DX003 (ip), vehicle: water) was 94 % of control.
Take `CC1(C)OCC(C(=O)C(OC(=O)c2ccccc2)C2COC(C)(C)O2)O1` (stereo not drawn): the T/C reads like this: (endpoint: mean survival time, dose: 50.0 mg/kg/injection, schedule: Q01DX009 (ip), vehicle: Klucel (hydroxypropylcellulose) (HPC)) 94 % of control; (endpoint: mean survival time, dose: 100.0 mg/kg/injection, schedule: Q01DX009 (ip), vehicle: Klucel (hydroxypropylcellulose) (HPC)) 88 % of control; (endpoint: mean survival time, dose: 200.0 mg/kg/injection, schedule: Q01DX009 (ip), vehicle: Klucel (hydroxypropylcellulose) (HPC)) 98 % of control.
